Test results published in patent US12263248B2, “Compounds and compositions for intracellular delivery of therapeutic agents” (ModernaTX, Inc., priority 2018, dated 2025).
Marks after values point to notes of the source that are not given here.

Columns and labels:
[1] = Encapsulation efficiency of RNA (QUANT-IT RIBOGREEN RNA assay); assay type: physicochemical
In short: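 RiboGreen fluorescence (ex ~480, em ~520 nm) compared between intact samples and Triton X-100-lysed samples after 15 min at 37 °C in TE buffer, pH 7.5. Percent free RNA is the blank-corrected intact/disrupted ratio.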

luciferase (Luc) mRNA = assay: Luc expression, whole body bioluminescence after intravenous administration to mice; assay type: in vivo; details: for Fold increase in total body Luc Flux relative to MC3 at 6 h: Table 3A; for Total Flux 3 hours / Total Flux 6 hours / Total Flux 24 hours / i.v. Lipid/MC3 0.5 mpk, Luc, 6 h: i.v.; for Total Flux 3 hours / Total Flux 6 hours / Total Flux 24 hours: 0.5 mg/kg, Luc mRNA; for i.v. Lipid/MC3 0.5 mpk, Luc, 6 h: Table 3B
In short: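 Luc mRNA nanoparticle formulations given intravenously to mice (n=6) at 0.5 mg/kg; whole-body bioluminescence imaged at 3, 6 and 24 h. CD-1 mice received IP D-luciferin (200 μL of 15 mg/mL) 15 min before imaging; total flux quantified by region of interest.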

hEPO mRNA = assay: hEPO expression after intramuscular administration to mice; assay type: in vivo; details: for Fold increase in hEPO concentration relative to MC3: mice, 0.01 mpk, 6 hr time point; for Novel lipid/MC3 ratio, 6 hr. timepoint, i.m. hEPO: relative to MC3, Table 3G
Experimental: The expression of hEPO and cytokine induction in mice intravenously administered a nanoparticle composition at a dose of 0.5 mpk were measured at 3, 6, and 24 hours. […] The expression of hEPO in mice intramuscularly administered a nanoparticle composition from Table 1B at a dose of 0.01 mpk were measured at 3, 6, and 24 hours.
Blood collection and analysis for hEPO. Blood was collected from mice or rats via the tail vein and hEPO concentrations were determined using a hEPO ELISA assay.

luciferase mRNA = assay: Luciferase expression after subcutaneous administration to mice; assay type: in vivo, female CD-1 mice; details: for Novel lipid/MC3 expression ratio, s.c. Luc 0.5 mpk (AUC) / Novel lipid/MC3 expression ratio, 6 hr. time point, s.c. Luc 0.5 mpk: relative to MC3; for Lipid/MC3 AUC ratio: luciferase; for AUC (luciferase expression): whole body BLI; for Novel lipid/MC3 ratio, s.c. Luc 6 hr.: relative to MC3, Table 3G
In short: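 Female CD-1 mice given luciferase mRNA in lipid nanoparticle formulations subcutaneously at 0.5 mpk. Expression read by whole-body bioluminescence imaging at 3, 6 and 24 h, with ex vivo liver, spleen and injection-site luminescence at 24 h.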

[2] = Table 1B, formulated with hEPO mRNA
[3] = Table 1C, compositions for subcutaneous administration
[4] = Table 1D, for subcutaneous administration, # formulated with hEPO mRNA
[5] = Table 1E, compositions for subcutaneous administration

SMILES | EE (%) ([1]; Table 1A) | EE (%) [1, 2] | % EE [1, 5] | % EE [1, 3] | % EE [1, 4] | Fold increase in total body Luc Flux relative to MC3 at 6 h (luciferase (Luc) mRNA; i.v. administration) | Total Flux 3 hours (luciferase (Luc) mRNA; mice) | Total Flux 6 hours (luciferase (Luc) mRNA; mice) | Total Flux 24 hours (luciferase (Luc) mRNA; mice) | Fold increase in hEPO concentration relative to MC3 (hEPO mRNA) | Novel lipid/MC3 ratio, 6 hr. timepoint, i.m. hEPO (hEPO mRNA) | Novel lipid/MC3 expression ratio, s.c. Luc 0.5 mpk (AUC) (luciferase mRNA; 0.5 mpk) | Lipid/MC3 AUC ratio (luciferase mRNA; 0.5 mpk) | AUC (luciferase expression) (luciferase mRNA; 0.5 mpk) | Novel lipid/MC3 ratio, s.c. Luc 6 hr. (luciferase mRNA) | i.v. Lipid/MC3 0.5 mpk, Luc, 6 h (luciferase (Luc) mRNA; 6 h) | Novel lipid/MC3 expression ratio, 6 hr. time point, s.c. Luc 0.5 mpk (luciferase mRNA; 0.5 mpk) | other results
CCCCCCCCCOC(=O)CCCCCCCN(CCO)CCCCCCCOC(=O)C(CCCCCCCC)CCCCCCCC [Compound 30, 7-((2-Hydroxyethyl)(8-(nonyloxy)-8-oxooctyl)amino)heptyl 2-octyldecanoate] | 95.69% | 96.32% | – | 93.0% | 93.1% | 2.49 | 1.19E+10 | 2.09E+10 | 1.21E+09 | 9.2 | 9.2 | (AUC: 6.38) | 6.38 | 1.0932E+11 (p/s) * h | 6.53 | – | – | Novel lipid/MC3 ratio, 6 hr. timepoint, i.v. (luciferase (Luc) mRNA; luciferase, intravenous, relative to MC3, Table 3G): 2.49; Novel lipid/MC3 expression ratio, 6 hr. time point, i.v. (luciferase (Luc) mRNA; luciferase, intravenous, relative to MC3 formulation): 2.49; factor by which MC3 is outperformed (luciferase mRNA; female CD-1 mice, 0.5 mpk): 6.5
CCCCCCCCCOC(=O)CCCCCCCN(CCCCCCCC(=O)OC(CCCCCCCC)CCCCCCCC)CCCNS(C)(=O)=O [Compound 109, Heptadecan-9-yl 8-((3-(methylsulfonamido)propyl)(8-(nonyloxy)-8-oxooctyl)amino)octanoate] | 98.6% | 98.29% | 98% | – | – | – | 3.82E+09 | 4.88E+09 | 8.06E+07 | 5.3 | – | – | – | – | – | 0.3 | 0.49 | –
CCCCC/C=C\C/C=C\CCCCCCCCC(CCCCCCCC/C=C\C/C=C\CCCCC)OC(=O)CCCN(C)C [MC3, DLin-MC3-DMA, reference compound] | 97.3% | 99.01% | 98% | 98.2% | 98.7% | 1.00 | 1.58E+10 | 2.12E+10 | 7.19E+08 | 1 | – | – | 1 | 1.7127E+10 (p/s) * h | – | – | – | % Encapsulation ([1]; lipid nanoparticle, ±SD within one assay run (Table 37)): 97.3 ± 1.9%; EE ([1]; lipid:DSPC:Chol:PEG-DMG (50:10:38.5:1.5), hEPO mRNA): 97.22%; EE ([1]; nanoparticle composition with hEPO mRNA (Table 30)): 91.66%; Lipid/MC3 Luc expression (luciferase (Luc) mRNA; 0.5 mpk dose to mouse, 6 hours after administration): 1; 6 h Lipid/MC3 Avg. Luc Expression (luciferase (Luc) mRNA; Table 3C, i.v. administration): 1; Fold increase AUC Lipid/MC3 (luciferase (Luc) mRNA; Table 3C, i.v. administration): 1; AUC (h * p/s) (luciferase (Luc) mRNA; Table 3C, i.v. administration, Luc): 8.24E+10 h * p/s; Lipid/MC3 AUC (luciferase (Luc) mRNA; Table 3D, intravenous): 1; AUC (p/s * h) (luciferase (Luc) mRNA; Table 3D, intravenous, Luc): 1.909E+011 p/s * h; Average total flux (6 h, ffluc) (luciferase (Luc) mRNA; mice, intravenous, 6 h): 6.59 × 10^9; Fold increase in average total flux relative to MC3 (luciferase (Luc) mRNA; mice, intravenous, 6 h): 1

Now from value to molecule, other results behind:

EE (%) ([1]; Table 1A) | EE (%) [1, 2] | % EE [1, 5] | SMILES | % EE [1, 3] | % EE [1, 4] | Fold increase in total body Luc Flux relative to MC3 at 6 h (luciferase (Luc) mRNA; i.v. administration) | Total Flux 3 hours (luciferase (Luc) mRNA; mice) | Total Flux 6 hours (luciferase (Luc) mRNA; mice) | Total Flux 24 hours (luciferase (Luc) mRNA; mice) | Fold increase in hEPO concentration relative to MC3 (hEPO mRNA) | Novel lipid/MC3 ratio, 6 hr. timepoint, i.m. hEPO (hEPO mRNA) | Novel lipid/MC3 expression ratio, s.c. Luc 0.5 mpk (AUC) (luciferase mRNA; 0.5 mpk) | Lipid/MC3 AUC ratio (luciferase mRNA; 0.5 mpk) | AUC (luciferase expression) (luciferase mRNA; 0.5 mpk) | Novel lipid/MC3 ratio, s.c. Luc 6 hr. (luciferase mRNA) | i.v. Lipid/MC3 0.5 mpk, Luc, 6 h (luciferase (Luc) mRNA; 6 h) | Novel lipid/MC3 expression ratio, 6 hr. time point, s.c. Luc 0.5 mpk (luciferase mRNA; 0.5 mpk) | other results
96% | 95.38% | 96% | CCCCCCCCCOC(=O)CCCCCCCN(CCCCCCCC(=O)OC(CCCCCCCC)CCCCCCCC)CCCNC(C)=O [Compound 108, Heptadecan-9-yl 8-((3-acetamidopropyl)(8-(nonyloxy)-8-oxooctyl)amino)octanoate] | – | – | – | 5.04E+09 | 5.53E+09 | 1.50E+08 | 3.7 | – | – | – | – | – | 0.4 | 0.22 | –
99.0% | 96.40% | – | CCCCCCCCCOC(=O)CCCCCCCN(CCCCCCCC(=O)OC(CCCCCCCC)CCCCCCCC)CCCNC(=O)NC [Compound 112, Heptadecan-9-yl 8-((3-(3-methylureido)propyl)(8-(nonyloxy)-8-oxooctyl)amino)octanoate] | 99.0% | – | – | 9.69E+08 | 1.04E+09 | 2.75E+07 | 1.6 | 1.6 | (AUC: 1.19) | 1.19 | 2.0339E+10 (p/s) * h | 1.33 | – | – | –
